Results reported in ChEMBL document CHEMBL1201862, “PubChem BioAssay data set” (2004).
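48-hour exposure; five concentrations; linearly interpolated endpoints. GI50: concentration for 50% inhibition of growth.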 Calls of active or inactive are those of the source. No stated cut-off is given here; in the data, active = GI50 up to about 1.1 µM and inactive = higher.

Assays:
Test in all cases: NCI anticancer screen, dose series, 48 h
K562 = system: K562
UO-31 = system: UO-31
BT-549 = system: BT-549
PC-3 = system: PC-3
SF-539 = system: SF-539
EKVX = system: EKVX
MDA-N = system: MDA-N
DU-145 = system: DU-145
SK-OV-3 = system: SK-OV-3
CAKI-1 = system: CAKI-1
NCI-H23 = system: NCI-H23
NCI/ADR-RES = system: NCI/ADR-RES
SK-MEL-2 = system: SK-MEL-2
IGROV-1 = system: IGROV-1
SF-268 = system: SF-268
HCC 2998 = system: HCC 2998
HL-60 = system: HL-60
CCRF-CEM = system: CCRF-CEM
M14 = system: M14

Row | Structure (SMILES) | GI50 (K562) | GI50 (UO-31) | GI50 (BT-549) | GI50 (PC-3) | GI50 (SF-539) | GI50 (EKVX) | GI50 (MDA-N) | GI50 (DU-145) | GI50 (SK-OV-3) | GI50 (CAKI-1) | GI50 (NCI-H23) | GI50 (NCI/ADR-RES) | GI50 (SK-MEL-2) | GI50 (IGROV-1) | GI50 (SF-268) | GI50 (HCC 2998) | GI50 (HL-60) | GI50 (CCRF-CEM) | GI50 (M14)
1 | O=[N+]([O-])c1cc(Cl)ccc1Sc1ccccc1 | > 100 µM (inactive) | 23.6 µM (inactive) | 81.5 µM (inactive) | > 100 µM (inactive) | > 100 µM (inactive) | > 100 µM (inactive) | 98.4 µM (inactive) | > 100 µM (inactive) | > 100 µM (inactive) | 93.8 µM (inactive) | > 100 µM (inactive) | > 100 µM (inactive) | 44.8 µM (inactive) | > 100 µM (inactive) | > 100 µM (inactive) | 87.9 µM (inactive) | 61.7 µM (inactive) | 89.9 µM (inactive) | > 100 µM (inactive)
2 | O=[N+]([O-])C(=C(Cl)Cl)C(Cl)=C(Cl)Cl | 0.0118 µM (active) | 0.836 µM (active) | 0.124 µM (active) | 0.778 µM (active) | 1.45 µM (inactive) | 3.65 µM (inactive) | 0.206 µM (active) | 8.85 µM (inactive) | 3.25 µM (inactive) | 0.15 µM (active) | 0.265 µM (active) | 1.36 µM (inactive) | 1.68 µM (inactive) | 0.422 µM (active) | 0.701 µM (active) | 1.3 µM (inactive) | < 0.0194 µM (active) | < 0.01 µM (active) | 0.0202 µM (active)
3 | CCCCCC/C=C\CCCCCCCCCc1cccc(O)c1C(=O)O [GINKGOLIC ACID 17:1] | 65.9 µM (inactive) | > 100 µM (inactive) | > 100 µM (inactive) | 51.9 µM (inactive) | > 100 µM (inactive) | > 100 µM (inactive) | > 100 µM (inactive) | > 100 µM (inactive) | > 100 µM (inactive) | > 100 µM (inactive) | > 100 µM (inactive) | > 100 µM (inactive) | 31.7 µM (inactive) | > 100 µM (inactive) | > 100 µM (inactive) | > 100 µM (inactive) | > 100 µM (inactive) | 99.1 µM (inactive) | > 100 µM (inactive)
